Measurements from US20080280824A1, “COMPOSITIONS AND METHODS FOR TREATMENT OF CANCER OR NEURODEGENERATIVE DISEASE WITH PEPTIDE BASED MICROTUBULE STABILIZERS OR INHIBITORS” (University of Washington, priority 2007, published 2008).

B1: αAβ8: human αB crystallin mutant, β8 sequence 131LTITSSLS138 replaced with homologous β8 sequence of human αA crystallin (protein)
chain: MDIAIHHPWIRRPFFPFHSPSRLFDQFFGEHLLESDLFPTSTSLSPFYLRPPSFLRAPSWFDTGLSEMRLEKDRFSVNLDVKHFSPEELKVKVLGDVIEVHGKHEERQDEHGFISREFHRKYRIPADVDPSALSCSLSSDGVLTVNGPRKQVSGPERTIPITREEKPAVTAAPKK

Columns and labels:
[1] = system: βH crystallin; assay: In vitro chaperone assay, thermal aggregation of βH crystallin; assay type: biochemical
[2] = system: alcohol dehydrogenase; assay: In vitro chaperone assay, thermal aggregation of alcohol dehydrogenase; assay type: biochemical
[3] = system: citrate synthase; assay: In vitro chaperone assay, thermal aggregation of citrate synthase; assay type: biochemical
[4] = biological target: T1, Bovine brain tubulin (Bos taurus, UniProt P81947+Q6B856); assay: Microtubule assembly assay (DAPI fluorescence, Microtubule Stabilization/Destabilization Assay kit); assay type: biochemical
T1 construct: Bovine brain tubulin was dissolved to 200 μM; purchased Cytoskeleton; Denver, Colo; host or cells: bovine brain
Experimental: Microtubule assembly assays. The effect of selected αB crystallin peptides on the in vitro assembly of tubulin into microtubules was evaluated using the Microtubule Stabilization/Destabilization Assay kit (Cytoskeleton; Denver, Colo.) as described previously. Bonne et al., J Biol Chem 260:2819-25, 1985. Bovine brain tubulin was dissolved to 200 μM in 80 mM PIPES, 2 mM MgCl2, 0.5 mM EGTA, 10 μM DAPI, 1 mM GTP pH 6.9. 8.5 μl of the tubulin was mixed with 40 μl of 80 mM PIPES, 2 mM MgCl2, 0.5 mM EGTA, 7.4 μM DAPI, 16% Glycerol, 1.1 mM GTP pH 6.9 and 4.3 μl of 2 mM peptide in 2.5% DMSO, 2 mM Paclitaxel (polymerization promoter) in 100% DMSO, 15 mM CaCl2 (polymerization inhibitor) in water, or 2.5% DMSO only. Microtubule assembly was monitored by measuring the fluorescence of DAPI, a molecule whose emission fluorescence at λ=460 is enhanced 8-fold when it is incorporated into assembled microtubules. Bonne et al., J Biol Chem 260:2819-25, 1985. Fluorescence of samples were continuously read on a Perkin Elmer Victor^3 V fluorescence plate reader (Excitation λ=355 nm, Emission λ=460 nm) at 37° C. for 45 minutes.
The effect of wt and three mutant αB crystallins, Δ41-58, αAβ8, and Δ155-165 on the in vitro assembly of tubulin into microtubules was evaluated using the Microtubule Stabilization/Destabilization Assay kit described above (Cytoskeleton; Denver, Colo.). Bovine brain tubulin was dissolved to 200 μM in 80 mM PIPES, 2 mM MgCl2, 0.5 mM EGTA, 10 μM DAPI, 1 mM GTP pH 6.9. 8.5 μl of the tubulin was mixed with 40 μl of 80 mM PIPES, 2 mM MgCl2, 0.5 mM EGTA, 7.4 μM DAPI, 16% Glycerol, 1.1 mM GTP pH 6.9 and 4.3 μl of 80 μM protein in 20 mM Tris-Cl, pH8.0 or Tris-Cl buffer only. Fluorescence of samples were continuously read on a Perkin Elmer Victor^3 V fluorescence plate reader (Excitation λ=355 nm, Emission λ=460 nm) at 37° C. for 45 minutes.

[5] = system: pre-formed microtubules; assay: Microtubule disassembly assay (DAPI fluorescence); assay type: biochemical, Bovine
Experimental: Microtubule disassembly assays. The effect of αB crystallin peptides and mutants on the in vitro disassembly of microtubules into soluble tubulin was evaluated using the Microtubule Stabilization/Destabilization Assay kit described above (Cytoskeleton; Denver, Colo.) as described previously^36. 34 μM pre-formed microtubules were incubated with the αB crystallin peptides (170 μM) or wt and mutant αB crystallins (6.8 μM and 34 μM) at 23° C. for 20 minutes. Incubation of microtubules at 23° C. results in the spontaneous disassembly of microtubules. The decrease in DAPI fluorescence at λ=460 nm was measured continuously for 20 minutes by exciting the samples at λ=355 nm using a Perkin Elmer Victor^3 V fluorescence plate reader.

[6] = system: Bovine brain tubulin; assay: Tubulin thermal aggregation assay (absorbance at 340 nm); assay type: biochemical
Experimental: Tubulin aggregation assays. The effect of αB crystallin peptides and mutants on the thermal aggregation of tubulin was evaluated using ultra-violet spectroscopy. Bovine brain tubulin was dissolved to 200 μM in 80 mM PIPES, 2 mM MgCl2, 0.5 mM EGTA, pH 6.9. 4.25 μl of 0.08, 0.4, or 2 mM test peptide or protein was diluted into 40 μl of 80 mM PIPES, 2 mM MgCl2, 0.5 mM EGTA, pH 6.9. 8.5 μl of the 200 μM tubulin was added to each sample. Samples were heated at 52° C. and the absorbance at λ=340 nm was measured continuously for 60 minutes using a Pharmacia Biotech Ultrospec 3000. GTP and glycerol were not present in the samples because they induce the assembly of microtubules.

T1 sequence (P81947 whole entry): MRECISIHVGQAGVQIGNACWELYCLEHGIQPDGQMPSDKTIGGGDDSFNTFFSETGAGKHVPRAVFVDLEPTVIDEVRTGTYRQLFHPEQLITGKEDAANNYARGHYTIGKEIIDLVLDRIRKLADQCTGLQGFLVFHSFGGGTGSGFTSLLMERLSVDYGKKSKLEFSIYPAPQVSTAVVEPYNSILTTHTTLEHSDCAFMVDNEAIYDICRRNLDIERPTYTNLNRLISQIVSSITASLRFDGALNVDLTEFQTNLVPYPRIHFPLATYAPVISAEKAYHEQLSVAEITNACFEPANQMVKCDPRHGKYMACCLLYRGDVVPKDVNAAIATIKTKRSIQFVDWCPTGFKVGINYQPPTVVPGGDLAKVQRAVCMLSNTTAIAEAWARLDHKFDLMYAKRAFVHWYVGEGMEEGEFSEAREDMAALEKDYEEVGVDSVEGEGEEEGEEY
T1 sequence (Q6B856 whole entry): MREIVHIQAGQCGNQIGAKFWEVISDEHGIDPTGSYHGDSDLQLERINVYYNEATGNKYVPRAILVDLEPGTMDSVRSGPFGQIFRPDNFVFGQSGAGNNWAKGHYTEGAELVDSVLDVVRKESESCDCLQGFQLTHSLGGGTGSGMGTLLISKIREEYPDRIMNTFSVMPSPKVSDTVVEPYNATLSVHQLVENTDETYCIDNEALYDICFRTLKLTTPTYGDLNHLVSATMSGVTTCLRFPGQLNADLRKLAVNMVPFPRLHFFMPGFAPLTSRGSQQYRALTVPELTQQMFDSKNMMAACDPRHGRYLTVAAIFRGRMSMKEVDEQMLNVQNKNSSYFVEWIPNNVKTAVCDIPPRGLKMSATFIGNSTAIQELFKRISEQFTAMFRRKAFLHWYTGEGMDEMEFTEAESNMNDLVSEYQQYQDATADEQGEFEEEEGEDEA

Molecule	effect on thermal aggregation of βH crystallin [1]	effect on thermal aggregation of alcohol dehydrogenase [2]	effect on thermal aggregation of citrate synthase [3]	microtubule assembly relative to wt αB crystallin ([4]; mutant αB crystallin, FIG. 4)	effect on microtubule assembly, vs absence of αB crystallin ([4]; wt or mutant αB crystallin protein, tubulin alone normalized to 1.0)	microtubule disassembly relative to wt αB crystallin ([5]; mutant αB crystallin, FIG. 4)	effect on microtubule disassembly (words), vs absence of αB crystallin ([5]; wt or mutant αB crystallin (6.8 μM and 34 μM), 34 μM microtubules, 23° C., 20 minutes)	tubulin aggregation relative to wt αB crystallin ([6]; mutant αB crystallin, FIG. 4)	effect on tubulin aggregation, vs absence of αB crystallin ([6]; wt or mutant αB crystallin protein, 52° C., 60 minutes)
LTITSSLSDGV	inhibited	inhibited	inhibited						
RTIPITRE	inhibited	inhibited	inhibited						
B1				increased	increased	decreased	completely inhibited	unchanged	decreased
